Columns and labels:
Assay type in all cases: in vivo
[1] = system: blackgrass (Alopecurus myosuroides); assay: Test C preemergence; settings: scale 0 to 100, 0 no effect, 100 complete control
Source text: Seeds of plant species selected from blackgrass (Alopecurus myosuroides), ryegrass, Italian (Italian ryegrass, Lolium multiflorum), wheat (winter wheat, Triticum aestivum), Galium (catchweed bedstraw, Galium aparine), corn (Zea mays), crabgrass, large (large crabgrass, Digitaria sanguinalis), foxtail, giant (giant foxtail, Setaria faberii), johnsongrass (Sorghum halepense), lambsquarters (Chenopodium album), morningglory (Ipomoea coccinea), nutsedge, yellow (yellow nutsedge, Cyperus esculentus), pigweed (Amaranthus retroflexus), ragweed (common ragweed, Ambrosia elatior), soybean (Glycine max), barnyardgrass (Echinochloa crus-galli), oilseed rape (Brassica napus), waterhemp (common waterhemp, Amaranthus rudis) and velvetleaf (Abutilon theophrasti) were planted into a blend of loam soil and sand and treated preemergence with test chemicals formulated in a non-phytotoxic solvent mixture which included a surfactant.
At the same time, plants selected from these crop and weed species and also Kochia (Kochia scoparia), oat, wild (wild oat, Avena fatua), and chickweed (common chickweed, Stellaria media) were planted in pots containing Sunshine Redi-Earth® planting medium comprising spaghnum peat moss, vermiculite, starter nutrients and dolomitic limestone and treated with postemergence applications of test chemicals formulated in the same manner. Plants ranged in height from 2 to 18 cm (1- to 4-leaf stage) for postemergence treatments. Treated plants and controls were maintained in a greenhouse for 13 to 15 d, after which time all species were compared to controls and visually evaluated. Plant response ratings, summarized in Table C, are based on a scale of 0 to 100 where 0 is no effect and 100 is complete control. A dash (-) response means no test result.

Kochia (Kochia scoparia) [2] = assay: Test A postemergence; settings: postemergence; for Kochia plant response rating: 125 g ai/ha, visual injury rating on 0 to 100 scale (0 no effect, 100 complete control), approx. 10 d; for Plant response rating, Kochia: 500 g ai/ha, 0 to 100 scale, 0 no effect, 100 complete control
Procedure, shortened: (§1)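 Each rating is a visual injury score from 0 to 100 given about 10 d after treatment, judged against untreated controls kept alongside in the greenhouse. In loam soil–sand blend, seeds got a preemergence directed soil spray, while postemergence plants were 2 to 10 cm tall at spraying.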

[3] = system: ryegrass, Italian (Italian ryegrass, Lolium multiflorum); assay: Test A postemergence; settings: postemergence; for Ryegrass, Italian plant response rating: 125 g ai/ha, visual injury rating on 0 to 100 scale (0 no effect, 100 complete control), approx. 10 d; for Plant response rating, Ryegrass, Italian: 500 g ai/ha, 0 to 100 scale, 0 no effect, 100 complete control
Procedure, shortened: as §1

[4] = system: Galium (catchweed bedstraw, Galium aparine); assay: Test A postemergence; settings: postemergence; for Galium plant response rating: 125 g ai/ha, visual injury rating on 0 to 100 scale (0 no effect, 100 complete control), approx. 10 d; for Plant response rating, Galium: 500 g ai/ha, 0 to 100 scale, 0 no effect, 100 complete control
Procedure, shortened: as §1

[5] = system: barnyardgrass (Echinochloa crus-galli); assay: Test A postemergence
Procedure, shortened: as §1

[6] = system: ragweed (common ragweed, Ambrosia elatior); assay: Test A postemergence; settings: postemergence; for Ragweed plant response rating: 125 g ai/ha, visual injury rating on 0 to 100 scale (0 no effect, 100 complete control), approx. 10 d; for Plant response rating, Ragweed: 500 g ai/ha, 0 to 100 scale, 0 no effect, 100 complete control
Procedure, shortened: as §1

corn (Zea mays) = assay: Test A postemergence; settings: postemergence; for Corn plant response rating: 125 g ai/ha, visual injury rating on 0 to 100 scale (0 no effect, 100 complete control), approx. 10 d; for Plant response rating, Corn: 500 g ai/ha, 0 to 100 scale, 0 no effect, 100 complete control
Procedure, shortened: as §1

[7] = system: giant foxtail (Setaria faberii); assay: Test A postemergence; settings: postemergence; for Foxtail, Giant plant response rating: 125 g ai/ha, visual injury rating on 0 to 100 scale (0 no effect, 100 complete control), approx. 10 d; for Plant response rating, Foxtail, Giant: 500 g ai/ha, 0 to 100 scale, 0 no effect, 100 complete control
Procedure, shortened: as §1

[8] = system: blackgrass (Alopecurus myosuroides); assay: Test A postemergence
Procedure, shortened: as §1

[9] = system: pigweed (Amaranthus retroflexus); assay: Test A postemergence; settings: postemergence; for Pigweed plant response rating: 125 g ai/ha, visual injury rating on 0 to 100 scale (0 no effect, 100 complete control), approx. 10 d; for Plant response rating, Pigweed: 500 g ai/ha, 0 to 100 scale, 0 no effect, 100 complete control
Procedure, shortened: as §1

[10] = system: wheat (Triticum aestivum); assay: Test A postemergence; settings: postemergence; for Wheat plant response rating: 125 g ai/ha, visual injury rating on 0 to 100 scale (0 no effect, 100 complete control), approx. 10 d; for Plant response rating, Wheat: 500 g ai/ha, 0 to 100 scale, 0 no effect, 100 complete control
Procedure, shortened: as §1

Kochia (Kochia scoparia) [11] = assay: Test A preemergence; settings: for Plant response rating, Kochia: 125 g ai/ha, preemergence, 0 to 100 scale (0 no effect, 100 complete control)
Procedure, shortened: as §1

[12] = system: ryegrass, Italian (Italian ryegrass, Lolium multiflorum); assay: Test A preemergence; settings: for Plant response rating, Ryegrass, Italian: 125 g ai/ha, preemergence, 0 to 100 scale (0 no effect, 100 complete control)
Procedure, shortened: as §1

[13] = system: barnyardgrass (Echinochloa crus-galli); assay: Test A preemergence; settings: for Plant response rating, Barnyardgrass: 125 g ai/ha, preemergence, 0 to 100 scale (0 no effect, 100 complete control)
Procedure, shortened: as §1

[14] = system: ragweed (common ragweed, Ambrosia elatior); assay: Test A preemergence; settings: for Plant response rating, Ragweed: 125 g ai/ha, preemergence, 0 to 100 scale (0 no effect, 100 complete control)
Procedure, shortened: as §1

[15] = system: giant foxtail (Setaria faberii); assay: Test A preemergence; settings: for Plant response rating, Foxtail, Giant: 125 g ai/ha, preemergence, 0 to 100 scale (0 no effect, 100 complete control)
Procedure, shortened: as §1

[16] = system: pigweed (Amaranthus retroflexus); assay: Test A preemergence; settings: for Plant response rating, Pigweed: 125 g ai/ha, preemergence, 0 to 100 scale (0 no effect, 100 complete control)
[17] = system: sedge, umbrella (small-flower umbrella sedge, Cyperus difformis); assay: Test B flooded paddy test; settings: Flood, 250 g ai/ha; 0 to 100 scale where 0 is no effect and 100 is complete control; 13 to 15 d
Procedure, shortened: (§2)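 Percent control, visually estimated after 13–15 d in the greenhouse on a 0–100 basis, compares treated pots with untreated ones; compound was put into paddy water 3 cm above the soil when plants had two leaves.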

rice (Oryra sativa) = assay: Test B flooded paddy test; settings: Flood, 250 g ai/ha; 0 to 100 scale where 0 is no effect and 100 is complete control; 13 to 15 d
Procedure, shortened: as §2

[18] = system: barnyardgrass (Echinochloa crus-galli); assay: Test B flooded paddy test; settings: Flood, 250 g ai/ha; 0 to 100 scale where 0 is no effect and 100 is complete control; 13 to 15 d
Procedure, shortened: as §2

[19] = system: ducksalad (Heteranthera limosa); assay: Test B flooded paddy test; settings: Flood, 250 g ai/ha; 0 to 100 scale where 0 is no effect and 100 is complete control; 13 to 15 d
Procedure, shortened: as §2

[20] = 500 g ai/ha, postemergence, 0 to 100 scale, 0 no effect, 100 complete control
[21] = Postemergence, 125 g ai/ha, visual injury, 0 to 100 scale (0 no effect, 100 complete control), approx. 10 d
[22] = Preemergence, 500 g ai/ha, 0 is no effect, 100 is complete control
[23] = 125 g ai/ha, postemergence, visual injury rating on 0 to 100 scale (0 no effect, 100 complete control), approx. 10 d
[24] = Preemergence, 500 g ai/ha, visual injury approx. 10 d

| SMILES | Plant response rating, Blackgrass ([1]; 31 g ai/ha) | Plant response rating, Blackgrass ([1]; 62 g ai/ha) | Plant response rating, Blackgrass ([1]; 125 g ai/ha) | Plant response rating, Blackgrass ([1]; 250 g ai/ha) | Kochia plant response rating (Kochia (Kochia scoparia) [2]) | Plant response rating, Kochia (Kochia (Kochia scoparia) [2]) | Ryegrass, Italian plant response rating [3] | Plant response rating, Ryegrass, Italian [3] | Galium plant response rating [4] | Plant response rating, Galium [4] | Plant response rating, Barnyardgrass [5, 20] | Ragweed plant response rating [6] | Plant response rating, Ragweed [6] | Corn plant response rating (corn (Zea mays)) | Plant response rating, Corn (corn (Zea mays)) | Foxtail, Giant plant response rating [7] | Plant response rating, Foxtail, Giant [7] | Plant response rating, Blackgrass [8, 20] | Pigweed plant response rating [9] | Plant response rating, Pigweed [9] | further results |
| --- | --- | --- | --- | --- | --- | --- | --- | --- | --- | --- | --- | --- | --- | --- | --- | --- | --- | --- | --- | --- | --- |
| CN1CC(c2cccc(OC(F)(F)C(F)F)c2)C(C(=O)Nc2ccc(F)cc2F)C1=O (stereo not shown) [Compound 393] | 10 | 55 | 70 | 90 | 60 | 60 | 40 | 70 | 70 | 70 | 90 | 0 | 0 | 80 | 80 | 90 | 90 | 70 | 50 | 70 | Plant response rating, Barnyardgrass [5, 21]: 80; Plant response rating, Blackgrass [8, 21]: 60; Wheat plant response rating [10]: 20; Plant response rating, Wheat [10]: 70; Plant response rating, Kochia (Kochia (Kochia scoparia) [11]): 60; Kochia plant response rating (0 to 100 scale) (Kochia (Kochia scoparia) [11]; [22]): 50; Plant response rating, Ryegrass, Italian [12]: 20; Ryegrass, Italian plant response rating (0 to 100 scale) [12, 22]: 50; Plant response rating, Barnyardgrass [13]: 90; Barnyardgrass plant response rating (0 to 100 scale) [13, 22]: 90; Plant response rating, Ragweed [14]: 0; Ragweed plant response rating (0 to 100 scale) [14, 22]: 70; Plant response rating, Foxtail, Giant [15]: 90; Foxtail, Giant plant response rating (0 to 100 scale) [15, 22]: 90; Plant response rating, Pigweed [16]: 50; Pigweed plant response rating (0 to 100 scale) [16, 22]: 70; Plant response rating, Sedge, Umbrella [17]: 0; Plant response rating, Rice (rice (Oryra sativa)): 0; Plant response rating, Barnyardgrass [18]: 65; Plant response rating, Ducksalad [19]: 90 |
| CN1CC(c2cccc(C(F)(F)F)c2)C(C)(C(=O)Nc2ccccc2F)C1=O (stereo not shown) [Compound 428] | 0 | 0 | 30 | 30 | 30 | 70 | 30 | 30 | 50 | 60 | 90 | 0 | 0 | 30 | 60 | 80 | 90 | 70 | 0 | 20 | Barnyardgrass plant response rating [5, 23]: 90; Blackgrass plant response rating [8, 23]: 40; Wheat plant response rating [10]: 30; Plant response rating, Wheat [10]: 60; Plant response rating, Kochia (Kochia (Kochia scoparia) [11]): 50; Kochia plant response rating (0 to 100 scale, 0 is no effect, 100 is complete control) (Kochia (Kochia scoparia) [11]; [24]): 50; Plant response rating, Ryegrass, Italian [12]: 20; Ryegrass, Italian plant response rating (0 to 100 scale, 0 is no effect, 100 is complete control) [12, 24]: 30; Plant response rating, Barnyardgrass [13]: 90; Barnyardgrass plant response rating (0 to 100 scale, 0 is no effect, 100 is complete control) [13, 24]: 90; Plant response rating, Ragweed [14]: 0; Ragweed plant response rating (0 to 100 scale, 0 is no effect, 100 is complete control) [14, 24]: 0; Plant response rating, Foxtail, Giant [15]: 90; Foxtail, Giant plant response rating (0 to 100 scale, 0 is no effect, 100 is complete control) [15, 24]: 90; Plant response rating, Pigweed [16]: 0; Pigweed plant response rating (0 to 100 scale, 0 is no effect, 100 is complete control) [16, 24]: 20 |
